# Experiments:
# PSMA NAALADase activity = PSMA NAALADase activity (Homo sapiens, UniProt Q04609); experiment: NAALADase inhibition assay; type: biochemical; conditions: relative to parent aptamer
# Protocol: These point mutant constructs were assessed for activity in terms of inhibition of PSMA NAALADase activity. The NAALADase assay was performed in 96 well format. PSMA aptamers were serially diluted in 1× reaction buffer (40 mM Tris-HCl, pH 7.4, 0.1 mM ZnSO4, 0.1 mg/mL BSA) in a standard 96 well plate to be tested at a final concentration range from 30 pM to 1 μM. The enzyme was prepared by diluting 30 μL of 100 nM PSMA into 8 mL of reaction buffer, and kept cool on ice. The substrate was prepared by adding 19 μl of NAAG [Glutamate-3,4-^3H], 50.8 Ci/mmol, 19.7 μM (Perkin-Elmer, Wellesley, Mass., NET1082) into 2.2 mL of reaction buffer.
# Following preparation of all reagents, 4 μl of each serially diluted aptamer was added to a separate 96 well plate (the reaction plate). 76 μl of diluted enzyme was added to the corresponding wells containing aptamer. 80 μl of reaction buffer was added to one column of wells to serve as a background control. The diluted substrate and reaction plate were then moved to a room at 37° C. and allowed to equilibrate for 10 minutes. […]
# To separate the cleavage products, […] and Glutamate, from the substrate, an AG 1-×8, 200-400 mesh, formate resin (BioRad, Hercules, Calif., # 140-1454) was used. […] The plate was sealed and read using a Packard Topcount Microplate Scintillation Counter. […]
# LNCaP cells (PSMA+) = experiment: LNCaP FACS assay with fluorescein-labeled aptamers; type: cell-based
# Excerpt: The parent A9 aptamer sequence (SEQ ID NO 168) is predicted by the MFOLD algorithm implemented in the RNAStructure program v. 4.11 to fold into a partially mismatched hairpin that encompasses almost the entire molecule. A series of truncated constructs were designed, in which self-pairing nucleotides from the 5′- and 3′-ends were simultaneously removed, chemically synthesized using conventional solid-phase phosphoramidite-based synthesis, and tested. In the design of some of the truncated A9 aptamers, see e.g. ARC591, additional bases were added to the 3′ and 5′ ends of the truncate, where the bases added to the 5′ end were capable of forming Watson-Crick base pairs with those added to the 3′ end thereby increasing the length of stem structure. Truncated aptamers were 5′-labeled with fluorescein and tested for binding in to LNCaP cells (PSMA+) in the FACS assay described below. PC-3 cells (PSMA−) were used as a control cell line. The sequences of the truncated A9 aptamers designed are listed below in Table 6 below.
# To accomplish 5′-fluorescein labeling, aptamers were synthesized with a 5′-amine and then modified post-solid phase synthesis. The required aptamer was dissolved to a concentration of ˜10-50 mg/mL in 25 mM phosphate buffer, pH 7.4. The small molecule, NHS ester of fluorescein, was dissolved to a concentration of 10 mg/mL in DMSO. 1.5 Molar equivalents were added to the aptamer and the solution vortexed for ˜15 seconds. The reaction was allowed to proceed in the dark at room temperature for 1 hour and then a 5 μL aliquot was withdrawn, diluted with water and analyzed by HPLC. Additional equivalents of the small molecule were added until the reaction was complete by HPLC. Excess small molecules were removed by gel filtration.
# To prepare aptamers for the FACS assay, PSMA aptamers were serially diluted (0-1 uM) in FACS buffer (1×DPBS w/Ca^++/Mg^++ (Gibco, Carlsbad, Calif.) supplemented with 10 mg/mL salmon sperm DNA & 0.2% Na Azide), in a V-bottom 96 well plate, at the concentrations to be tested. LNCaP and PC-3 cells (ATCC, Manassas, Va.) were harvested with trypsin, and 200,000 cells/well were counted, washed once with 1×DPBS (with Ca^++ and Mg^++) and resuspended in 200 μl of FACS Buffer. The 200 μl of cells in FACS buffer were added to individual wells of a new 96 well plate, pelleted by centrifugation (1300 rpm for 5 minutes), and resuspended in 100 μl of the appropriate concentration of diluted aptamer. FACS buffer, c-PSMA antibody (3C6) (Northwest Biotherapeutics, Bothell, Wash., Cat #: 60-5002) and an irrelevant fluorescein isothiocyanate (“FITC”) mouse IgG1 isotype control antibody (BD Pharmingen, San Diego, Calif., Cat#: 554679) were used as controls. The wells of aptamer/cell mixture were incubated at room temperature for 20-30 minutes. […]
# [1] = test system: metastatic, androgen independent prostate cancer; conditions: docetaxel in combination with prednisone, given every three weeks; control mitoxantrone and prednisone; cited from earlier work
# PC-3 cells (PSMA−) = experiment: FACS assay on control cell line; type: cell-based
# Excerpt: The parent A9 aptamer sequence (SEQ ID NO 168) is predicted by the MFOLD algorithm implemented in the RNAStructure program v. 4.11 to fold into a partially mismatched hairpin that encompasses almost the entire molecule. A series of truncated constructs were designed, in which self-pairing nucleotides from the 5′- and 3′-ends were simultaneously removed, chemically synthesized using conventional solid-phase phosphoramidite-based synthesis, and tested. […]
# To prepare aptamers for the FACS assay, PSMA aptamers were serially diluted (0-1 uM) in FACS buffer (1×DPBS w/Ca^++/Mg^++ (Gibco, Carlsbad, Calif.) supplemented with 10 mg/mL salmon sperm DNA & 0.2% Na Azide), in a V-bottom 96 well plate, at the concentrations to be tested. LNCaP and PC-3 cells (ATCC, Manassas, Va.) were harvested with trypsin, and 200,000 cells/well were counted, washed once with 1×DPBS (with Ca^++ and Mg^++) and resuspended in 200 μl of FACS Buffer. […]
# Cell samples were analyzed on a FACS Scan machine (Becton Dickinson, San Jose, Calif.) under the following parameters: FSC/SSC, FL-1/FSC, FL-3/FSC. The unstained and/or isotype controls were used to establish gating parameters, and the data was analyzed using Cell Quest Pro software version 5.1.1 (Becton Dickinson Immunocytometry Systems, San Jose, Calif.).
# Chain of PSMA NAALADase activity (Q04609 with tags, fused parts or gaps limits assumed): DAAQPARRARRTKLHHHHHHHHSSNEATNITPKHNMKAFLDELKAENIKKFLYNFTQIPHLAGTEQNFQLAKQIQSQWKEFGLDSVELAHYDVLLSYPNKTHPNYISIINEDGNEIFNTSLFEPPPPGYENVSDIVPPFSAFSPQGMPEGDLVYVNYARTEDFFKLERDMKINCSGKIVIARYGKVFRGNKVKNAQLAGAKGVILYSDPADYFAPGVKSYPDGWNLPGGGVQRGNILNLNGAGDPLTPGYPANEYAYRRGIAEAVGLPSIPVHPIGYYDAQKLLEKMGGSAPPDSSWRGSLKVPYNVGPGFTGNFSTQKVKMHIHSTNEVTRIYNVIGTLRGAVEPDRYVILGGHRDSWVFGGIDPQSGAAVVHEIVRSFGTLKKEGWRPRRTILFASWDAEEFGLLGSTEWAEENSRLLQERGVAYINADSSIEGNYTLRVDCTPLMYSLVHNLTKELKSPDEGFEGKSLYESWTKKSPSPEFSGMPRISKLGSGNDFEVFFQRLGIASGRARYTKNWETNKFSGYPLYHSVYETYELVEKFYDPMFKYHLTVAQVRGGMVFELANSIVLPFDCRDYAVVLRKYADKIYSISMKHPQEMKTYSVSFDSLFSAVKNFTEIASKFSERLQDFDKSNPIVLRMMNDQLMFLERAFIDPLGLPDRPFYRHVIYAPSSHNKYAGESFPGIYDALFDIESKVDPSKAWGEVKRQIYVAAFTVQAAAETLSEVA
Molecule,NAALADase inhibition activity (in words) (PSMA NAALADase activity),binding to LNCaP (PSMA+) cells by FACS (in words) (LNCaP cells (PSMA+)),survival advantage over the control group [1],binding to PC-3 (PSMA−) cells by FACS (in words) (PC-3 cells (PSMA−))
"GGAGGACCGAAAAAGACCUGACUUCUAUACUAAGUCUACGUUCCUCCA (2'-fluoro pyrimidines, further chemistry not given here) [ARC591, 48-nt minimer of A9, 2′-OH purines, 2′-fluoro pyrimidines]",retained full functional activity,retained full functional activity,,
"CC(=O)O[C@@]12CO[C@@H]1C[C@H](O)[C@@]1(C)C(=O)[C@H](O)C3=C(C)[C@@H](OC(=O)[C@H](O)[C@@H](NC(=O)OC(C)(C)C)c4ccccc4)C[C@@](O)([C@@H](OC(=O)c4ccccc4)[C@H]21)C3(C)C [Taxotere, docetaxel]",,,approximately 2.5 months,
"GGGAGGACGAUGCGGACCGAAAAAGACCUGAfCfUfUfCfUAfUAfCfUAAGfUfCfUAf CGfUfUfCfCfCAGAfCGAfCfUfCGfCfCfCGA (nucleic acid, listed as RNA, chemistry not fully specified, existing PSMA specific aptamer of rRfY composition, described in U.S. Ser. No. 09/978,969) GGGAGGACGAUGCGGACCGAAAAAGACCUGACUUCUAUACUAAGUCUACGUUCCCAGACGACUCGCCCGA",,binding to LNCaP (PSMA+) cells,,not to PC-3 (PSMA−) cells

# Reference: patent US7767803B2, “Stabilized aptamers to PSMA and their use as prostate cancer therapeutics” (Archemix Corp., priority 2002, dated 2010)
